System: human colon carcinoma cell strain WiDr
Experiment: Microarray analysis (2), reviewed conditions, intron expression, Table 3
Format: cell-based
Conditions: treated vs control; for Fold Change (change in expression level of intron probe set): WiDr cells
Experimental: WiDr cells were first suspended in RPMI1640 medium (containing 10% FBS, penicillin, and streptomycin) and seeded in a 10 cm dish (2×10^6 cells/dish). After an overnight culture in an incubator with 5% carbon dioxide gas at 37° C., the medium was changed with medium containing 14 nM of (8E,12E,14E)-7-((4-cycloheptylpiperazin-1-yl)carbonyl)oxy-3,6,16,21-tetrahydroxy-6,10,12,16,20-pentamethyl-18,19-epoxytricosa-8,12,14-trien-11-olide or containing vehicle alone. After cultured for additional six hours, TRI reagent (SIGMA) were added to the cells and the cells were harvested. RNA was purified in accordance with the protocol of TRI reagent, followed by further purification with RNeasy (QIAGEN). Absorbance at 260 nm was measured to quantify an amount of RNA. This experiment was repeated three times and RNA samples (n=3) were prepared.
Ribosomal RNA was removed from 1 μg of each total RNA of control cells (n=3) and cells with the treatment (n=3) by using RiboMinus Human/Mouse Transcriptome Isolation Kit (Invitrogen). Single stranded cDNA synthesis, double stranded cDNA synthesis, cRNA synthesis, second single stranded cDNA synthesis, cDNA fragmentation, and cDNA labeling in order were carried out for the total RNA from which ribosomal RNA was removed, by using GeneChip Whole Transcript Sense Target Labeling and Control Reagents (Affymetrix) to make a cDNA probe. The cDNA probe was used for hybridization with Human Exon 1.0 ST Array (Affymetrix). The array was washed and stained, and luminescence intensity was measured by a scanner.
Analysis conditions were reviewed in the data used in Example 3. Genes containing increased introns upon treatment with (8E,12E,14E)-7-((4-cycloheptylpiperazin-1-yl)carbonyl)oxy-3,6,16,21-tetrahydroxy-6,10,12,16,20-pentamethyl-18,19-epoxytricosa-8,12,14-trien-11-olide were identified.
In order to consider the analysis conditions, variations in the data from the samples with identical conditions were studied. […] It turned out that, by analyzing under conditions where the expression level was more than 100 and change in the expression level was more than five times, a probe set with increased expression can be extracted.
Probe sets showing that the normalized change in the level expression of the probe set in the group with the treatment was more than 5 times; the expression level of the probe set and the gene in the group with the treatment were more than 100; and probe set annotation was “extended, full, free”, were picked out. Welch's t-test was conducted with the probe sets extracted for the treated group and the control group to determine a p and q value. A gene containing the probe sets with the q value of less than 5% was determined as a candidate gene with increased expression level of the intron regions (Table 3).
In Table 3, for each gene evaluated, gene name (Gene Name), abbreviated name (Gene Symbol), accession number (Accession), alias name (Synonym), transcription cluster number in Human Exon 1.0 ST Array (Human Exon 1.0 ST Array Transcript Cluster ID), chromosome number (Chromosome), type of strand (Strand), start region (Start), stop region (Stop), and change in expression level (Fold Change) were respectively shown.

In the case of CCC(O)C(C)C1OC1CC(C)(O)/C=C/C=C(\C)C1OC(=O)CC(O)CCC(C)(O)C(OC(=O)N2CCN(C3CCCCCC3)CC2)/C=C/C1C (stereo not drawn) [E7107, (8E,12E,14E)-7-((4-cycloheptylpiperazin-1-yl)carbonyl)oxy-3,6,16,21-tetrahydroxy-6,10,12,16,20-pentamethyl-18,19-epoxytricosa-8,12,14-trien-11-olide], the “Fold Change” value (gene AMD1, intron expression) was 7.90, the “Fold Change” value (gene ANLN, intron expression) was 7.90 and the “Fold Change” value (gene ANTXR2, intron expression) was 7.51. For the same compound, the “Fold Change” value (gene API5, intron expression) was 7.77, the “Fold Change” value (gene ATAD2, intron expression) was 7.69 and the “Fold Change” value (gene ATN1, change in expression level) was 14.70. For the same compound, the “Fold Change” value (gene AZIN1, intron expression) was 7.51, the “Fold Change” value (gene BAT1 // ATP6V1G2, intron expression) was 7.87 and the “Fold Change (change in expression level of intron probe set)” value (gene BAZ1B, transcript cluster 3056044) was 5.01. For the same compound, the “Fold Change” value (gene BCL7B, intron expression) was 7.82, the “Fold Change” value (gene BIRC6, change in expression level) was 15.96 and the “Fold Change” value (gene BNIP2, change in expression level) was 15.96. The “Fold Change (change in expression level of intron probe set)” value (gene BTF3L4, transcript cluster 2336271) was 5.01, the “Fold Change” value (gene C1orf160, intron expression) was 7.69 and the “Fold Change” value (gene C4orf30, intron expression) was 7.53. For the same compound, the “Fold Change” value (gene C10orf119, intron expression) was 7.55, the “Fold Change” value (gene C11orf57, intron expression) was 7.54 and the “Fold Change” value (gene C12orf44, intron expression) was 7.51. The “Fold Change” value (gene C15orf42, change in expression level) was 26.27, the “Fold Change (change in expression level of intron probe set)” value (gene CDCA5, transcript cluster 3377423) was 5.02 and the “Fold Change” value (gene CENTD1, intron expression) was 7.60. For the same compound, the “Fold Change” value (gene CERK, intron expression) was 7.52, the “Fold Change” value (gene CGI-09, change in expression level) was 16.01 and the “Fold Change” value (gene CHCHD3, intron expression) was 7.75. The “Fold Change” value (gene CLK3, intron expression) was 7.91, the “Fold Change” value (gene CRSP6, intron expression) was 7.49 and the “Fold Change” value (gene CSNK2A1 // CSNK2A1P, intron expression) was 7.87. For the same compound, the “Fold Change” value (gene DDX17, change in expression level) was 15.42, the “Fold Change” value (gene DDX18 // WNT8B, intron expression) was 7.70 and the “Fold Change” value (gene DDX23, change in expression level) was 15.78. The “Fold Change” value (gene DEDD, intron expression) was 7.89, the “Fold Change” value (gene DPH1 // OVCA2, intron expression) was 7.64 and the “Fold Change” value (gene EEF1A1, intron expression) was 7.70. The “Fold Change” value (gene EEF1B2, intron expression) was 7.78, the “Fold Change” value (gene EGFR, intron expression) was 7.77 and the “Fold Change (change in expression level of intron probe set)” value (gene EIF3S1, transcript cluster 3591963) was 5.02. For the same compound, the “Fold Change” value (gene EIF4G2, intron expression) was 7.60, the “Fold Change” value (gene FBXL11, intron expression) was 7.57 and the “Fold Change (change in expression level of intron probe set)” value (gene FBXO28, transcript cluster 2382336) was 5.02. The “Fold Change” value (gene FDFT1, intron expression) was 7.90, the “Fold Change” value (gene FEN1, change in expression level) was 14.75 and the “Fold Change” value (gene FOXM1, intron expression) was 7.52. For the same compound, the “Fold Change” value (gene GDI1, intron expression) was 7.73, the “Fold Change” value (gene GTF2H1, intron expression) was 7.62 and the “Fold Change” value (gene GTF3C2, intron expression) was 7.63. The “Fold Change” value (gene GTPBP4, intron expression) was 7.79, the “Fold Change” value (gene HIRA, intron expression) was 7.82 and the “Fold Change” value (gene HSP90AA1 // HSP90AA2 // HSP90AA6P, intron expression) was 7.53. The “Fold Change (change in expression level of intron probe set)” value (gene IDH3B, transcript cluster 3895075) was 5.01, the “Fold Change” value (gene ILF3, intron expression) was 7.68 and the “Fold Change” value (gene IRS2, intron expression) was 7.68. For the same compound, the “Fold Change” value (gene ITGB4BP, intron expression) was 7.55, the “Fold Change” value (gene ITGB6, intron expression) was 7.88 and the “Fold Change” value (gene JOSD3 // SNORA25 // SNORA32 // SNORA18, intron expression) was 7.81. The “Fold Change” value (gene KCTD10, intron expression) was 7.48, the “Fold Change” value (gene KIAA0174, change in expression level) was 14.78 and the “Fold Change” value (gene KIAA1967, intron expression) was 7.49. The “Fold Change” value (gene KITLG, intron expression) was 7.58, the “Fold Change” value (gene KLHL18, change in expression level) was 15.00 and the “Fold Change” value (gene MAP2K3, intron expression) was 7.70. For the same compound, the “Fold Change” value (gene MAP3K11, intron expression) was 7.77, the “Fold Change” value (gene MKL1, intron expression) was 7.93 and the “Fold Change (change in expression level of intron probe set)” value (gene MLL5, transcript cluster 3017547) was 5.02. For the same compound, the “Fold Change” value (gene MRPL17, intron expression) was 7.62, the “Fold Change” value (gene MTF2, intron expression) was 7.63 and the “Fold Change” value (gene MYST2, intron expression) was 7.60. For the same compound, the “Fold Change” value (gene NDUFA5, intron expression) was 7.48, the “Fold Change” value (gene NONO, intron expression) was 7.64 and the “Fold Change” value (gene NOP5/NOP58, intron expression) was 7.73. For the same compound, the “Fold Change” value (gene PAK1IP1 // C20orf7, change in expression level) was 15.04, the “Fold Change” value (gene PELI1, change in expression level) was 27.36 and the “Fold Change” value (gene PEX5, intron expression) was 7.53. The “Fold Change” value (gene PHF12, intron expression) was 7.73, the “Fold Change (change in expression level of intron probe set)” value (gene PIK4CB // RFX5, transcript cluster 2434925) was 5.03 and the “Fold Change (change in expression level of intron probe set)” value (gene POLR3O, transcript cluster 2432647) was 5.01. The “Fold Change” value (gene POMZP3, intron expression) was 7.56, the “Fold Change” value (gene PPP6C, intron expression) was 7.91 and the “Fold Change” value (gene PPRC1, intron expression) was 7.86. The “Fold Change” value (gene PRPF40A, intron expression) was 7.89, the “Fold Change” value (gene RBM5, intron expression) was 7.69 and the “Fold Change” value (gene RPS6KB1, intron expression) was 7.73. The “Fold Change” value (gene SAFB2, intron expression) was 7.64, the “Fold Change” value (gene SAPS3, change in expression level) was 15.25 and the “Fold Change” value (gene SDCCAG3 // SNAPC4, intron expression) was 7.49. For the same compound, the “Fold Change (change in expression level of intron probe set)” value (gene SHB // CKAP2 // MCART1, transcript cluster 3205659) was 5.00, the “Fold Change” value (gene SIN3A, intron expression) was 7.60 and the “Fold Change” value (gene SMAD5, intron expression) was 7.77. For the same compound, the “Fold Change” value (gene SNIP1, intron expression) was 7.72, the “Fold Change” value (gene SNRP70, intron expression) was 7.52 and the “Fold Change” value (gene SPOP, intron expression) was 7.71. The “Fold Change” value (gene SPRED2, change in expression level) was 15.03, the “Fold Change (change in expression level of intron probe set)” value (gene SPTLC2, transcript cluster 3573152) was 5.02 and the “Fold Change” value (gene STARD7, intron expression) was 7.65. For the same compound, the “Fold Change” value (gene STIP1, intron expression) was 7.71, the “Fold Change” value (gene SUPV3L1, change in expression level) was 14.99 and the “Fold Change” value (gene TBC1D10B, intron expression) was 7.74. The “Fold Change” value (gene TCP1, intron expression) was 7.92, the “Fold Change” value (gene THRAP1, intron expression) was 7.84 and the “Fold Change” value (gene TMEM2, intron expression) was 7.52. The “Fold Change” value (gene TOP1, intron expression) was 7.93, the “Fold Change” value (gene TXNDC9 // LYG2, intron expression) was 7.69 and the “Fold Change” value (gene UBE2J1, intron expression) was 7.66. The “Fold Change” value (gene USP36, intron expression) was 7.92, the “Fold Change” value (gene VAPA, intron expression) was 7.56 and the “Fold Change” value (gene WAC, intron expression) was 7.92. The “Fold Change” value (gene WDR3, intron expression) was 7.63, the “Fold Change” value (gene YIPF3 // C6orf154, intron expression) was 7.61 and the “Fold Change” value (gene YME1L1, intron expression) was 7.84. For the same compound, the “Fold Change” value (gene YTHDF1, intron expression) was 7.83, the “Fold Change” value (gene ZNF148, intron expression) was 7.69 and the “Fold Change” value (gene ZNF473, intron expression) was 7.87.
